Data from patent publication US20220162191A1, “SMALL MOLECULE MODULATORS OF IL-17” (LEO PHARMA A/S, priority 2019, published 2022).

What follows are compounds tested against T1, human IL-17AA (Homo sapiens, UniProt Q16552) (assay: IL-8 release assay in human epithelial keratinocytes adult (HEKa)). Conditions: 3 ng/ml human IL-17AA + 10 ng/ml human TNFalpha, 68-72 h, IL-8 by HTRF, read-out: Rel EC50 L-8 release assay.
T1 construct: host or cells: HEK (human embryonic kidney) cells
T1 sequence (Q16552 24-155) 1: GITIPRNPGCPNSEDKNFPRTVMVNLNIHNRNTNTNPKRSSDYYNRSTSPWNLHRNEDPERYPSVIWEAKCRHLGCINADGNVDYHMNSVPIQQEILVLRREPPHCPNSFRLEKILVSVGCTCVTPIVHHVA
T1 sequence (Q16552 24-155) 2: T1 sequence (Q16552 24-155) 1
Assay type: cell-based
Outline: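 IL-8 secretion, quantified by HTRF (665/620 nm) as percent of controls, served as the readout after 68–72 h culture of HEKa cells with compound plus IL-17AA (3 ng/ml final) and TNF-alpha (10 ng/ml final). Four-parameter logistic curves gave relative IC50 and Emax.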

Q: For CC(C)n1cc(-c2cccc(C(c3ccccc3)C(NC(=O)OC3CC3)C(=O)Nc3ccc(-c4cncn4C)cc3)c2)ccc1=O (single isomer, unassigned; diastereomer 3) [Example 240, cyclopropyl N-[1-[[3-(1-isopropyl-6-oxo-3-pyridyl)phenyl]-phenyl-methyl]-2-[4-(3-methylimidazol-4-yl)anilino]-2-oxo-ethyl]carbamate (Diastereomer 3)], which EC50 is on record?
A: The EC50 was > 1000 nM.

Q: For CC(C)COC(=O)N[C@@H](Cc1cc(-c2ccc(=O)n(C(C)C)c2)ccc1Cl)C(=O)Nc1ccc(-c2nncn2C)cc1 [Example 100, isobutyl N-[(1S)-1-[[2-chloro-5-(1-isopropyl-6-oxo-3-pyridyl)phenyl]methyl]-2-[4-(4-methyl-1,2,4-triazol-3-yl)anilino]-2-oxo-ethyl]carbamate], which EC50 is on record?
A: Its EC50 is 100 to 1000 nM.

Q: Cn1cncc1-c1ccc(NC(=O)C(Cc2cc(-c3ccnc(N4CC[C@@H](CO)C4)c3)ccc2Cl)NC(=O)c2ccnn2C)cc1 (stereo partly drawn) [Example 186, N-[1-[[2-chloro-5-[2-[(3R)-3-(hydroxymethyl)pyrrolidin-1-yl]-4-pyridyl]phenyl]methyl]-2-[4-(3-methylimidazol-4-yl)anilino]-2-oxo-ethyl]-2-methyl-pyrazole-3-carboxamide] was tested. Which EC50 did it give?
A: The EC50 was 100 to 1000 nM.

Q: CC(C)Cn1cc(-c2ccc(Cl)c(C[C@H](NC(=O)OC3CC3)C(=O)Nc3ccc(-c4cncn4C)cc3)c2)nn1 [Example 214, cyclopropyl N-[(1S)-1-[[2-chloro-5-(1-isobutyltriazol-4-yl)phenyl]methyl]-2-[4-(3-methylimidazol-4-yl)anilino]-2-oxo-ethyl]carbamate] was tested. Which EC50 did it give?
A: Its EC50 is > 1000 nM.

Q: For Cc1n[nH]cc1-c1ccc(NC(=O)C(NC(=O)c2ccnn2C)C(c2ccccc2)c2cccc(-c3ccc(=O)n(C(C)C)c3)c2)cc1 (single isomer, unassigned; diastereomer 1) [Example 235, N-[1-[[3-(1-isopropyl-6-oxo-3-pyridyl)phenyl]-phenyl-methyl]-2-[4-(3-methyl-1H-pyrazol-4-yl)anilino]-2-oxo-ethyl]-2-methyl-pyrazole-3-carboxamide (Diastereomer 1)], which EC50 is on record?
A: Its EC50 is < 100 nM.

Q: For Cc1n[nH]c(C)c1-c1ccc(NC(=O)[C@@H](NC(=O)c2ccnn2C)[C@@H]2CCc3ccc(-c4cnn(C(C)(C)CO)c4)cc32)cc1 [Example 11, N-[(1S)-2-[4-(3,5-dimethyl-1H-pyrazol-4-yl)anilino]-1-[(1R)-6-[1-(2-hydroxy-1,1-dimethyl-ethyl]pyrazol-4-yl]indan-1-yl]-2-oxo-ethyl]-2-methyl-pyrazole-3-carboxamide], which EC50 is on record?
A: Its EC50 is < 100 nM.

Q: Which EC50 does the source give for Cc1n[nH]c(C)c1-c1ccc(NC(=O)[C@H](Cc2cc(-c3cccc(C(C)(C)O)c3)ccc2Cl)NC(=O)c2ccnn2C)cc1 [Example 58, N-[(1S)-1-[[2-chloro-5-[3-(1-hydroxy-1-methyl-ethyl)phenyl]phenyl]methyl]-2-[4-(3,5-dimethyl-1H-pyrazol-4-yl)anilino]-2-oxo-ethyl]-2-methyl-pyrazole-3-carboxamide] here?
A: Its EC50 is < 100 nM.

Q: With CC(C)n1cc(-c2ccc(Cl)c(CC(NC(=O)c3ccnn3C)C(=O)Nc3ccc(-c4nncn4C)cc3)c2)ccc1=O (centres unmarked) [Example 62, N-[1-[[2-chloro-5-(1-isopropyl-6-oxo-3-pyridyl)phenyl]methyl]-2-[4-(4-methyl-1,2,4-triazol-3-yl)anilino]-2-oxo-ethyl]-2-methyl-pyrazole-3-carboxamide] as the compound, how does the EC50 read?
A: The EC50 was > 1000 nM.

Q: For Cc1n[nH]c(C)c1-c1ccc(NC(=O)[C@@H](NC(=O)c2ccnn2C)[C@@H]2CCCc3ccc(-c4ccc(=O)n(C(C)C)c4)cc32)cc1O [Example 33, N-[(1S)-2-[4-(3,5-dimethyl-1H-pyrazol-4-yl)-3-hydroxy-anilino]-1-[(1R)-7-(1-isopropyl-6-oxo-3-pyridyl)tetralin-1-yl]-2-oxo-ethyl]-2-methyl-pyrazole-3-carboxamide], which EC50 is on record?
A: The EC50 was < 100 nM.

Q: How did the EC50 turn out when CC(C)n1cc(-c2ccc(Cl)c(CC(NC(=O)C3(F)CC3)C(=O)Nc3ccc(-c4nncn4C)cc3)c2)cc(C(F)(F)F)c1=O (centres unmarked) [Example 307, N-[1-[[2-chloro-5-[1-isopropyl-6-oxo-5-(trifluoromethyl)-3-pyridyl]phenyl]methyl]-2-[4-(4-methyl-1,2,4-triazol-3-yl)anilino]-2-oxo-ethyl]-1-fluoro-cyclopropanecarboxamide] was run?
A: Its EC50 is > 1000 nM.

Q: For Cc1nn(C)c(C)c1-c1ccc(NC(=O)[C@@H](NC(=O)C2(F)CC2)[C@@H]2CCc3ccc(-c4ccnc(N5C[C@@H]6C[C@H]5CO6)c4)cc32)cc1 [Example 371, 1-fluoro-N-[(1S)-1-[(1R)-6-[2-[(1S,4S)-2-oxa-5-azabicyclo[2.2.1]heptan-5-yl]-4-pyridyl]indan-1-yl]-2-oxo-2-[4-(1,3,5-trimethylpyrazol-4-yl)anilino]ethyl] cyclopropanecarboxamide], which EC50 is on record?
A: The EC50 was < 100 nM.

Q: Cc1n[nH]c(C)c1-c1ccc(NC(=O)[C@H](Cc2cc(-c3ccnc(N4CC5COCC5C4)n3)ccc2Cl)NC(=O)C2(F)CC2)cc1 (stereo partly drawn) [Example 318, N-[(1S)-1-[[5-[2-(1,3,3a,4,6,6a-hexahydrofuro[3,4-c]pyrrol-5-yl)pyrimidin-4-yl]-2-chloro-phenyl]methyl]-2-[4-(3,5-dimethyl-1H-pyrazol-4-yl)anilino]-2-oxo-ethyl]-1-fluoro-cyclopropanecarboxamide] was tested. Which EC50 did it give?
A: The EC50 was < 100 nM.

Q: Cc1cnn(C)c1-c1ccc(NC(=O)[C@@H](NC(=O)C2(F)CC2)[C@@H](c2cccc(-c3cncc(N4C[C@@H]5C[C@H]4CO5)n3)c2)C2CC2)cc1 [Example 350, N-[(1S)-1-[(R)-cyclopropyl-[3-[6-[(1S,4S)-2-oxa-5-azabicyclo[2.2.1]heptan-5-yl]pyrazin-2-yl]phenyl]methyl]-2-[4-(2,4-dimethylpyrazol-3-yl)anilino]-2-oxo-ethyl]-1-fluoro-cyclopropanecarboxamide] was tested. Which EC50 did it give?
A: Its EC50 is < 100 nM.

Q: How did the EC50 turn out when Cc1cnn(C)c1-c1ccc(NC(=O)[C@@H](NC(=O)C2(F)CC2)[C@@H]2CCCc3ccc(-c4ccnc(N5C[C@H]6C[C@@H]5CO6)c4)cc32)cc1 [Example 399, N-[(1S)-2-[4-(2,4-dimethylpyrazol-3-yl)anilino]-1-[(1R)-7-[2-[(1R,4R)-2-oxa-5-azabicyclo[2.2.1]heptan-5-yl]-4-pyridyl]tetralin-1-yl]-2-oxo-ethyl]-1-fluoro-cyclopropanecarboxamide] was run?
A: The EC50 was < 100 nM.

Q: Which EC50 does the source give for Cc1nocc1C(=O)NC(Cc1cc(-c2cccc(C(=O)N3CC(F)C3)c2)ccc1Cl)C(=O)Nc1ccc(-c2nncn2C)cc1 (centres unmarked) [Example 120, N-[1-[[2-chloro-5-[3-(3-fluoroazetidine-1-carbonyl)phenyl]phenyl]methyl]-2-[4-(4-methyl-1,2,4-triazol-3-yl)anilino]-2-oxo-ethyl]-3-methyl-isoxazole-4-carboxamide] here?
A: The EC50 was 100 to 1000 nM.

Q: How did the EC50 turn out when Cc1n[nH]c(C)c1-c1ccc(NC(=O)[C@H](Cc2cc(-c3ccnc(N4C[C@H]5C[C@@H]4CO5)c3)ccc2Cl)NC(=O)C2(F)CC2)cc1 [Example 222, N-[(1S)-1-[[2-chloro-5-[2-[(1R,4R)-2-oxa-5-azabicyclo[2.2.1]heptan-5-yl]-4-pyridyl]phenyl]methyl]-2-[4-(3,5-dimethyl-1H-pyrazol-4-yl)anilino]-2-oxo-ethyl]-1-fluoro-cyclopropanecarboxamide] was run?
A: Its EC50 is < 100 nM.

Q: For Cn1cncc1-c1ccc(NC(=O)C(Cc2cc(-c3ccnc(OC(F)F)c3)ccc2Cl)NC(=O)c2ccnn2C)cc1 (centres unmarked) [Example 161, N-[1-[[2-chloro-5-[2-(difluoromethoxy)-4-pyridyl]phenyl]methyl]-2-[4-(3-methylimidazol-4-yl)anilino]-2-oxo-ethyl]-2-methyl-pyrazole-3-carboxamide], which EC50 is on record?
A: Its EC50 is 100 to 1000 nM.
